Results taken from patent publication US20230000813A1, “COMPOUND FOR THE TREATMENT OF BOVINE OR SWINE RESPIRATORY DISEASE” (Intervet Inc., priority 2016, published 2023).
≈ marks a conversion by molar mass, not a printed value.

Experiments:
Assay in all cases: MIC, broth-microdilution (CLSI VET01-A4)
Format in all cases: cell-based
[1] = tested on: Mannheimia haemolytica MH 13065 (XB0446-6003.9, BRD field isolate)
How it was run: (§1)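 MIC read by eye as lowest compound concentration without visible growth (no turbidity), interpreted per CLSI VET01-S3. Doubling-dilution broth-microdilution trays, run according to CLSI VET01-A4.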

[2] = tested on: Mannheimia haemolytica MH 13093 (XB0472-6014.1, BRD field isolate)
How it was run: as §1

[3] = tested on: Mannheimia haemolytica MH 10720 (154, BRD field isolate); details: Mannheimia haemolytica MH 10720; for MIC: read-out: MIC MH 10720
How it was run: (§2)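 Test compound is serially diluted twofold across microdilution trays, bacteria are grown, and wells are inspected by eye. The lowest concentration showing no growth is recorded as the MIC.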

[4] = tested on: Pasteurella multocida PM 12080 (IV102277-0093, BRD field isolate); details: Pasteurella multocida PM 12080; for MIC: read-out: MIC PM 12080
How it was run: as §2

[5] = tested on: Pasteurella multocida PM 10775 (080130003051, BRD field isolate); details: Pasteurella multocida PM 10775
How it was run: as §2

[6] = tested on: Pasteurella multocida PM 6391 (ATCC 43137, reference strain); details: Pasteurella multocida PM 6391; for MIC: read-out: MIC PM 6391
How it was run: as §2

[7] = tested on: Mannheimia haemolytica MH 12587 (1071, BRD field isolate, macrolide-resistance: erm+, E+); details: Mannheimia haemolytica MH 12587, macrolide-resistant
How it was run: as §2

[8] = tested on: Mannheimia haemolytica MH 6357 (M7/2, reference strain, cattle infection strain); details: Mannheimia haemolytica MH 6357; read-out: MIC MH 6357
How it was run: as §2

[9] = tested on: Pasteurella multocida PM 6267 (P 2225 (L386), reference strain, mouse infection strain); details: Pasteurella multocida PM 6267; for MIC: read-out: MIC PM 6267
How it was run: as §2

[10] = tested on: Mannheimia haemolytica MH 6374 (ATCC 33396, reference strain); details: Mannheimia haemolytica MH 6374; read-out: MIC MH 6374
How it was run: as §2

Row | SMILES | MIC [1] [µM] | MIC [2] [µM] | MIC MH 10720 [3] | MIC [4] [µM] | MIC PM 10775 [5] | MIC [6] [µM] | MIC MH 12587 [7] [µM] | MIC [8] [µM] | MIC PM 6267 [9] | MIC [10] [µM] | MIC PM 12080 [4] | MIC [3] [µM] | MIC [9] [µM] | MIC PM 6391 [6]
1 | CC(C)C(NC(=O)c1ccc(C#Cc2ccc(CNCc3ccco3)cc2)cc1)C(=O)NO (stereo not shown) [Compound 290] | 0.4 (≈ 0.178 µg/mL) | 0.4 (≈ 0.178 µg/mL) | <=0.1 μM | 0.2 (≈ 0.0891 µg/mL) | <=0.1 μM | 0.4 (≈ 0.178 µg/mL) | 0.4 (≈ 0.178 µg/mL) | 0.2 (≈ 0.0891 µg/mL) | <=0.1 μM | 0.4 (≈ 0.178 µg/mL) | – | – | – | –
2 | CC(C)C(NC(=O)c1ccc(C#Cc2ccc(CNCc3cccs3)cc2)cc1)C(=O)NO (stereo not shown) [Compound 291] | 0.2 (≈ 0.0923 µg/mL) | 0.4 (≈ 0.185 µg/mL) | <=0.1 μM | – | <=0.1 μM | 0.2 (≈ 0.0923 µg/mL) | 0.8 (≈ 0.369 µg/mL) | 0.2 (≈ 0.0923 µg/mL) | <=0.1 μM | 0.4 (≈ 0.185 µg/mL) | <=0.1 μM | – | – | –
3 | Cc1ccc(CNCc2ccc(C#Cc3ccc(C(=O)NC(C(=O)NO)C(C)C)cc3)cc2)cc1 (stereo not shown) [Compound 292] | 0.8 (≈ 0.376 µg/mL) | 0.8 (≈ 0.376 µg/mL) | – | 0.4 (≈ 0.188 µg/mL) | <=0.1 μM | 0.4 (≈ 0.188 µg/mL) | 1.6 (≈ 0.751 µg/mL) | 0.4 (≈ 0.188 µg/mL) | – | 0.8 (≈ 0.376 µg/mL) | – | 0.4 (≈ 0.188 µg/mL) | 0.2 (≈ 0.0939 µg/mL) | –
4 | CCC(C)C(NC(=O)c1ccc(C#Cc2ccc(CNCc3cccnc3)cc2)cc1)C(=O)NO (stereo not shown) [Compound 299] | 0.8 (≈ 0.376 µg/mL) | 0.8 (≈ 0.376 µg/mL) | <=0.1 μM | 0.4 (≈ 0.188 µg/mL) | <=0.1 μM | 1.6 (≈ 0.753 µg/mL) | 1.6 (≈ 0.753 µg/mL) | 0.4 (≈ 0.188 µg/mL) | – | 0.8 (≈ 0.376 µg/mL) | – | – | 0.2 (≈ 0.0941 µg/mL) | –
5 | CCC(C)C(NC(=O)c1ccc(C#Cc2ccc(CNCc3ccco3)cc2)cc1)C(=O)NO (stereo not shown) [Compound 301] | 0.8 (≈ 0.368 µg/mL) | 0.8 (≈ 0.368 µg/mL) | <=0.1 μM | 0.4 (≈ 0.184 µg/mL) | <=0.1 μM | 0.8 (≈ 0.368 µg/mL) | 1.6 (≈ 0.735 µg/mL) | 0.4 (≈ 0.184 µg/mL) | – | 0.8 (≈ 0.368 µg/mL) | – | – | 0.4 (≈ 0.184 µg/mL) | –
6 | CCC(C)C(NC(=O)c1ccc(C#Cc2ccc(CNCc3cccs3)cc2)cc1)C(=O)NO (stereo not shown) [Compound 302] | 0.8 (≈ 0.38 µg/mL) | 0.8 (≈ 0.38 µg/mL) | – | 0.2 (≈ 0.0951 µg/mL) | <=0.1 μM | 0.8 (≈ 0.38 µg/mL) | 1.6 (≈ 0.761 µg/mL) | 0.4 (≈ 0.19 µg/mL) | – | 1.6 (≈ 0.761 µg/mL) | – | 0.2 (≈ 0.0951 µg/mL) | 0.2 (≈ 0.0951 µg/mL) | –
7 | COc1ccc(CNCc2ccc(C#Cc3ccc(C(=O)N[C@H](C(=O)NO)[C@@H](C)O)cc3)s2)cc1 [Compound 306] | 0.4 (≈ 0.197 µg/mL) | 0.8 (≈ 0.395 µg/mL) | <=0.1 μM | 0.2 (≈ 0.0987 µg/mL) | <=0.1 μM | 0.2 (≈ 0.0987 µg/mL) | 0.8 (≈ 0.395 µg/mL) | 0.4 (≈ 0.197 µg/mL) | <=0.1 μM | 0.4 (≈ 0.197 µg/mL) | – | – | – | –
8 | CC(C)C(NC(=O)c1ccc(C#Cc2ccc(CNCc3nccs3)cc2)cc1)C(=O)NO (stereo not shown) [Compound 341] | 0.2 (≈ 0.0925 µg/mL) | 0.4 (≈ 0.185 µg/mL) | <=0.1 μM | – | <=0.1 μM | – | 0.4 (≈ 0.185 µg/mL) | 0.2 (≈ 0.0925 µg/mL) | <=0.1 μM | 0.4 (≈ 0.185 µg/mL) | <=0.1 μM | – | – | <=0.1 μM
9 | C[C@@H](O)[C@H](NC(=O)c1ccc(C#Cc2ccc(CNCc3nccs3)cc2)cc1)C(=O)NO [Compound 359] | 0.2 (≈ 0.0929 µg/mL) | 0.4 (≈ 0.186 µg/mL) | <=0.1 μM | – | <=0.1 μM | – | 0.4 (≈ 0.186 µg/mL) | 0.2 (≈ 0.0929 µg/mL) | <=0.1 μM | 0.2 (≈ 0.0929 µg/mL) | <=0.1 μM | – | – | <=0.1 μM
10 | CC(C)(N)C(NC(=O)c1ccc(C#Cc2ccc(CNCc3nccs3)cc2)cc1)C(=O)NO (stereo not shown) [Compound 562] | 0.8 (≈ 0.382 µg/mL) | 0.8 (≈ 0.382 µg/mL) | <=0.1 μM | – | <=0.1 μM | – | 1.6 (≈ 0.764 µg/mL) | 0.8 (≈ 0.382 µg/mL) | <=0.1 μM | 0.8 (≈ 0.382 µg/mL) | <=0.1 μM | – | – | <=0.1 μM
